Measurements reported in US5599953A, “C-glycoside analogues of N-(4-hydroxyphenyl)retinamide-O-glucuronide” (The Ohio State Research Foundation, priority 1995, dated 1997).
“Also recorded” adds a separate entry of the source. Like-named read-outs stand apart in the source and are kept apart here. Each block holds one molecule with its values, some of them ahead of it.

Key:
mRARα = biological target: T1, mRARα (Mus musculus, UniProt P11416); assay: Drug competition with (3H)retinoic acid binding, mRARα; conditions: read-out: percent reduction of binding of the (3H)retinoic acid, mRARα
T1 construct: made in house; host or cells: Spodoptera frugiperda insect cells, baculovirus (whole cell extract)
T1 sequence (P11416 1-462): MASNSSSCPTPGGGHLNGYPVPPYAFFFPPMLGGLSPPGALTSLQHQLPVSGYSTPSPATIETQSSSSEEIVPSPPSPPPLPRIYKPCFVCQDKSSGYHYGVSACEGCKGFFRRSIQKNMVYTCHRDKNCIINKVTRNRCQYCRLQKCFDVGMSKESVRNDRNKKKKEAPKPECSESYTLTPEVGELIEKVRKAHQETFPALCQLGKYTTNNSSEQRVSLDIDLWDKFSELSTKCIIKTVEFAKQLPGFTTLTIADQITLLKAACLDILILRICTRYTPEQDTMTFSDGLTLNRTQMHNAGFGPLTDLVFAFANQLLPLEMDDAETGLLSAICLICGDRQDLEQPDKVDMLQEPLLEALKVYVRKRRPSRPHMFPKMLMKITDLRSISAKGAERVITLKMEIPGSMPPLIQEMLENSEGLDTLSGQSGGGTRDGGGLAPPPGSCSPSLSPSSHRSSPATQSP

[1] = system: carcinogen-induced rat mammary tumors; conditions: cited from earlier work
mRARγ = biological target: T2, mRARγ (Mus musculus, UniProt P18911); assay: Drug competition with (3H)retinoic acid binding, mRARγ; conditions: read-out: percent reduction of binding of the (3H)retinoic acid, mRARγ; 1 μM drug; 5 nM [3H]RA
T2 construct: made in house; host or cells: Spodoptera frugiperda insect cells, baculovirus (whole cell extract)
T2 sequence (P18911 1-458): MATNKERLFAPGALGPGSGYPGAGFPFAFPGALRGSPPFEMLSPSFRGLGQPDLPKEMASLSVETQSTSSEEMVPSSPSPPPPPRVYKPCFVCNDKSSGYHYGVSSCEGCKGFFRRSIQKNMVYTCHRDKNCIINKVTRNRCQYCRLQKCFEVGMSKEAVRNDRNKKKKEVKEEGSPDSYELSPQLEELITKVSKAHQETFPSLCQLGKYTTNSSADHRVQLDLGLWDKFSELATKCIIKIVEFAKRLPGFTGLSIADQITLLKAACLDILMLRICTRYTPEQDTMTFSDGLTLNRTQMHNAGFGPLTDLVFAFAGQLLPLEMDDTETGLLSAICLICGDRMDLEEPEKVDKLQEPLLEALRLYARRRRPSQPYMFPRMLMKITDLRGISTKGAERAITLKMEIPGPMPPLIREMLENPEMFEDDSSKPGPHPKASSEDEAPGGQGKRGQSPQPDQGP

[2] = system: cultured human breast cancer cells; conditions: Bhatnagar et al.; cited from earlier work
mRARβ = biological target: T3, mRARβ (Mus musculus, UniProt P22605); assay: Drug competition with (3H)retinoic acid binding, mRARβ; conditions: read-out: percent reduction of binding of the (3H)retinoic acid, mRARβ; 1 μM drug; 5 nM [3H]RA
T3 construct: made in house; host or cells: Spodoptera frugiperda insect cells, baculovirus (whole cell extract)
T3 sequence (P22605 1-448 isoform P22605-3): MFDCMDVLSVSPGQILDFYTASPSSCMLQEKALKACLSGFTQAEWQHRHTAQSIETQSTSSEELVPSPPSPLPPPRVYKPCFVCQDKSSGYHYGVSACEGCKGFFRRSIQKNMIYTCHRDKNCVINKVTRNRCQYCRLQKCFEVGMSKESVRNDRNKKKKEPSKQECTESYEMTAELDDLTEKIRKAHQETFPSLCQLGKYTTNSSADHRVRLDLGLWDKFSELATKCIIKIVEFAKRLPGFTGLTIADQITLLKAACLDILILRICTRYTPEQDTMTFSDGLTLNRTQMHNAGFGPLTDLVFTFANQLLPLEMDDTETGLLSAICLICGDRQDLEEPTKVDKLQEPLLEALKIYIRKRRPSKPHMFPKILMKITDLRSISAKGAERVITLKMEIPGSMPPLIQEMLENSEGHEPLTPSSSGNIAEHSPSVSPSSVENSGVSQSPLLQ

cancer = conditions: literature; cited from earlier work
MCF-7 cells = assay: Growth inhibition of MCF-7 human mammary tumor cells; format: cell-based; conditions: Homo sapiens, MCF7, 168 h, 7 days, read-out: ED50 for growth inhibition of MCF-7 cells
Method: The antiproliferative activity of the drugs in MCF-7 human mammary tumor cell culture models were determined.
The MCF-7 cells were obtained originally from the Michigan Cancer Foundation. The cells were routinely grown as monolayers in T-25 plastic tissue culture flasks from Falcon, in Oxnard, Calif. containing 5.0 mL of B-10 medium consisting of Minimum Essential Medium (MEM, Earle's Base) supplemented with 1.0 mM MEM non-essential amino acid, 2.0 mM 1-glutamine,10% fetal bovine serum (FBS), and antibiotics. Culture conditions included a humidified atmosphere of 5% CO2 at 37° C. One-half of the medium was replenished twice a week. Cells were harvested by trypsinization upon confluency. All variables were evaluated in triplicate.
For the growth inhibition assay the MCF-7 cells were plated in 24-well plates at a density of 1.5×10^4 cells/cm^2. […] Control cultures were treated with an equivalent volume of absolute ethanol. On day 7 the cells were harvested by trypsinization and viability was assessed by trypan blue exclusion according to Ueda, H. et al. Cancer 1980, 46, 2203-2209. Total cell counts were obtained using a hemocytometer as well as a the Coulter Counter.

[3] = biological target: T4, human retinoic acid receptor γ (Homo sapiens, UniProt P13631); assay: Competition binding / retinoic acid binding, human retinoic acid receptor γ/BCV (FIG. 1); conditions: 1.3 nM [3H]-retinoic acid
T4 construct: made in house
T4 sequence (P13631 1-454): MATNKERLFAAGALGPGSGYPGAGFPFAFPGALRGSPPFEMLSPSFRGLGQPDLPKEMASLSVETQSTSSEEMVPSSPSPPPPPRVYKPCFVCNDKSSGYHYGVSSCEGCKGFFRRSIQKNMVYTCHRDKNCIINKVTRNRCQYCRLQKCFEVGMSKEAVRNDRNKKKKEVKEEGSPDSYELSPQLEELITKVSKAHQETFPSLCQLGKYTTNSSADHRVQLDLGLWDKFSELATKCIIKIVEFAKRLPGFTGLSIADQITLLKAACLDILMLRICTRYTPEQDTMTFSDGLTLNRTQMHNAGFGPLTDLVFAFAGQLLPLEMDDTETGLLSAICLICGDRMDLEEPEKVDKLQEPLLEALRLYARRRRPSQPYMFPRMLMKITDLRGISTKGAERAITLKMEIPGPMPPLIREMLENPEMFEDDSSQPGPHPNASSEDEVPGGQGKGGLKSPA

[4] = Acid stability, 0.1N HCl at 37° C. for two hours; format: physicochemical
Method: Similarly, 1-(D-glucopyranosyluronosyl) retinamide and RAG were treated with 0.1N HCl at 37° C. for two hours.

[5] = system: DMBA-Induced Rat Mammary Tumors; assay: Effect on progression of DMBA-induced rat mammary tumors; format: in vivo; conditions: 1 mmol/Kg in diet; for tumor latency: 15 mg DMBA oral; for tumor incidents / tumor number/rat: 110 days post intubation
Source text: The control rats received DMBA intubation only and AIN-76A rat chow.

β-glucuronidase = biological target: T5, β-glucuronidase (Homo sapiens, UniProt P08236); assay: Stability toward β-glucuronidase mediated hydrolysis; format: in vitro ADME; conditions: within twenty minutes
T5 sequence (P08236 23-651): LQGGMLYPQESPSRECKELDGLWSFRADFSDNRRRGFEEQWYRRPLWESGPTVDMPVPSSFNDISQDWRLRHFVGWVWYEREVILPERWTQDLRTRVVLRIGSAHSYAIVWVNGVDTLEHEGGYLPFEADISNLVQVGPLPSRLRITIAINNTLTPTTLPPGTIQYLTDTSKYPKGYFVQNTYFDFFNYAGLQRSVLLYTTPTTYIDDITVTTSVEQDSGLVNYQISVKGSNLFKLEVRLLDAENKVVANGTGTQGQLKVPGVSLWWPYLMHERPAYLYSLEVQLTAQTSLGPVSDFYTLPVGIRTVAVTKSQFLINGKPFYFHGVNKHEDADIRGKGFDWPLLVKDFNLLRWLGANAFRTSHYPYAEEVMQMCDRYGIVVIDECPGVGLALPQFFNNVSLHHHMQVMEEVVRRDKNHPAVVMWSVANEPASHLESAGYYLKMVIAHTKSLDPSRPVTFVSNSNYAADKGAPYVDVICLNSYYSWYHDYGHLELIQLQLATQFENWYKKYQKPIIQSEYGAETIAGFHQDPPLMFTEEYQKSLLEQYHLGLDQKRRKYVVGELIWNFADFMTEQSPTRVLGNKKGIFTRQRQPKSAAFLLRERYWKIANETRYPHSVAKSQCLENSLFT
Method: Similarly 1-(D-glucopyranosyluronosyl) retinamide and RAG were evaluated for their stability toward β-glucuronidase medicated hydrolysis under the same conditions as described above.

[6] = system: hamster tracheal in vitamin A deficient epithelial tissue; conditions: Newton et al.; cited from earlier work
[7] = substrate: CC1=C(/C=C/C(C)=C/C=C/C(C)=C/C(=O)Nc2ccc(O[C@@H]3O[C@H](C(=O)O)[C@@H](O)[C@H](O)[C@H]3O)cc2)C(C)(C)CCC1; assay: Inhibition of β-glucuronidase mediated hydrolysis of 4-HPR-O-glucuronide; format: biochemical; conditions: other: 4-HPR-O-glucuronide as substrate
Source text: Chem. Soc., (1954), 76, 4872-4877.

inhibition at 1 µM (mRARα; 1 μM drug, 5 nM [3H]RA): 18% | inhibition at 1 µM (mRARγ): 7% | inhibition at 1 µM (mRARβ): 5% | IC50 (MCF-7 cells; Assay 1): 2800 nM | IC50 (MCF-7 cells; Assay 2): 1500 nM | IC50 (MCF-7 cells; Assay 3): 33000 nM
Molecule: CC1=C(/C=C/C(C)=C/C=C/C(C)=C/C(=O)Nc2ccc(O)cc2)C(C)(C)CCC1 [Example 4-HPR, N-(4-hydroxyphenyl) retinamide, reference compound]
breast cancer chemopreventive activity combined with calcium glucarate [1]: synergistically exerts an increased breast cancer chemopreventive activity | cytotoxicity [2]: significant cytotoxicity | cancer preventive activity (cancer): displays chemopreventive activity in breast cancer

Ki [3]: 280 nM | acid stability [4]: remained intact | hydrolysis by β-glucuronidase within twenty minutes (β-glucuronidase): remained intact
Molecule: CC1=C(/C=C/C(C)=C/C=C/C(C)=C/C(=O)NC2O[C@H](C(=O)O)[C@@H](O)[C@H](O)[C@H]2O)C(C)(C)CCC1 (stereo partly drawn) [1-(D-glucopyranosyluronosyl) retinamide]
effect on DMBA-induced mammary tumor development, in words [5]: significantly prolonged the latency period of mammary cancer; also recorded: tumor induction was markedly delayed and reduced; also recorded: caused the largest reduction in multiple mammary tumors; also recorded: greater mammary tumor chemopreventive effect than does retinoic acid; also recorded: inhibit DMBA induced mammary tumor development | tumor latency [5]: 64 days | tumor incidents [5]: 50% | tumor number/rat [5]: 0.83 tumors per rat

Second part, the molecule before the results:

Molecule: CC1=C(/C=C/C(C)=C/C=C/C(C)=C/C(=O)O)C(C)(C)CCC1 [retinoic acid, reference compound]
inhibition at 1 µM (mRARα): 100% | inhibition at 1 µM (mRARγ): 100% | reversal of metaplastic condition [6]: can reverse the metaplastic condition of hamster tracheal in vitamin A deficient epithelial tissue | tumor latency [5]: 49 days | tumor incidents [5]: 83% | tumor number/rat [5]: 1.17 tumors per rat | cancer preventive activity (cancer): display cancer preventive activity

B1: β-glucuronidase (Homo sapiens) (protein)
chain: T5 sequence (P08236 23-651)
Km [7]: 184.5 µM
